In patent US20020114804A1, “A METHOD OF TREATING INFECTION OF SUTURES AND PROSTHETIC DEVICES” (priority 1996, published 2002):

Columns and labels:
Assay type in all cases: cell-based, human
PMNs [1] = test: PMN migration through fibrin gels in Boyden-type chemotaxis chambers
Procedure: (§1) Becton-Dickinson cell culture inserts (pore sizes 3 or 8 μm: Franklin Lakes, N.J.) were overlaid with the following proteins:
Fibrin gels: 1 Unit of thrombin (a gift from Dr. John Fenton, Albany Medical College, Albany, N.Y.), in 5 μl of PBS was added first to each insert. 0.1 ml phosphate buffered saline supplemented with Ca^2+ and Mg^2+ (PBS) containing 100 μg commercial grade fibrinogen (Calbiochem. Inc., San Diego, Calif.) or purified fibrinogen [a gift from Dr. Jeffery Weitz, (MacMaster University, Hamilton, On.)] was then placed into each 8.2 mm diameter insert on top of the thrombin. The mixture was incubated at 37° C. for 5 min to allow fibrin gel formation (determined by visual inspection). 1 Unit PPACK (Calbiochem Inc., San Diego, Calif.; 10^−5 M final concentration), in 100 μl medium was added to each insert to inhibit thrombin, and gels were washed with 250 μl PBS to remove inactivated thrombin. The fibrin gels formed were about 1 mm thick as measured under a dissecting microscope.
(§2) PMNs were prepared from fresh heparinized blood from healthy adult volunteers by sedimentation on Ficoll-Hypaque gradients. Contaminating red blood cells were removed by hypotonic lysis, as described (7). The purity of PMN isolated by this method is >95% as determined by Wright-Giemsa staining (7). 10^6 PMNs in 250 μl of PBS supplemented with 5.5 mM glucose and 0.1% human serum albumin (PBSG-HSA), were placed in the upper compartment of each insert and incubated for 0-6 hrs at 37° C. in a humidified atmosphere containing 95% air/5% CO2. At the times and concentrations specified, chemoattractants/cytokines were added to the top or bottom compartment in 250 μl of PBSG-HSA. At the end of the incubation, the chambers were shaken to dislodge PMNs from the lower surface of the inserts. The medium in each lower compartment was collected and its content of PMNs was determined using either a Coulter Counter or a hemocytometer. Both methods gave similar results. Counts are expressed as the average number of PMNs that migrated into the lower compartment. Unless otherwise indicated, all values reported are the average of six data points from at least 3 independent experiments.

PMNs [2] = test: PMN migration through plasma clots (plasma gels); settings: chemoattractant in lower compartment, 6 hrs
Procedure: as §1
Clotted Plasma: Whole blood was collected and the cellular components were removed by centrifugation. The resulting plasma was mixed with an equal volume of PBS, and 100 μl of this mixture was placed into each insert containing thrombin and allowed to clot as described above. One unit of PPACK in 100 μl PBS then was added and the inserts were washed with 250 μl of PBS.
as §2, with “At the times and concentrations specified, chemoattractants/cytokines were added to the top or bottom compartment in 250 μl of PBSG-HSA. At the end of the incubation, the chambers were shaken to dislodge PMNs from the lower surface of the inserts.” left out, “Both methods gave similar results.” left out, “Unless otherwise indicated, all values reported are the average of six data points from at least 3 independent experiments.” left out

PMNs [3] = test: PMN migration through filters coated with fibrinogen or fibronectin
Procedure: as §1
Fibrinogen or fibronectin: 0.1 ml of PBS containing 100 μg/ml fibrinogen or fibronectin (New York Blood Center, New York, N.Y.), was placed into each insert (pore size 3 μm). Inserts were incubated at 37° C. for 60 min and washed with 250 μl of PBS. Filters coated with fibrinogen or fibronectin were diffusely fluorescent as visualized by epifluorescent microscopy when incubated with the corresponding antibody [fluorescein-labeled anti-fibrinogen, or anti-fibronectin monoclonal antibodies (Cappel, Malvern, Pa.)], while uncoated filters, or filters incubated with fluorescein-labeled antibody of the opposite specificity, were not.
PMNs were prepared from fresh heparinized blood from healthy adult volunteers by sedimentation on Ficoll-Hypaque gradients. Contaminating red blood cells were removed by hypotonic lysis, as described (7). The purity of PMN isolated by this method is >95% as determined by Wright-Giemsa staining (7). […] The medium in each lower compartment was collected and its content of PMNs was determined using either a Coulter Counter or a hemocytometer. […] Counts are expressed as the average number of PMNs that migrated into the lower compartment. […]

PMNs [4] = test: PMN migration through Matrigel or Matrigel/tenascin coated filters; settings: Matrigel alone
Procedure: Polymorphonuclear leukocytes (PMN), were prepared as described (7) from heparinized human blood by sedimentation on Ficoll-Hypaque gradients. Contaminating red blood cells were removed by hypotonic lysis. The purity of PMN isolated by this method was >95% as determined by Wright-Giemsa staining.
Cell culture inserts containing polyethylene terephthalate filters, 8-μm pore size (Becton-Dickinson), were overlaid with 0.1 ml of Matrigel (20-25 μg protein/filter) (Collaborative Research, Bedford, Mass.), and incubated at room temperature until they dried. These Matrigel-coated filters were washed with phosphate buffered saline containing 1.0 mM Mg^2+ and 1.0 mM Ca^2+ (PBS). 0.1 ml of a PBS solution (pH 7.2) containing the indicated amount of purified chick brain tenascin was added to some of the inserts. The filters were incubated at room temperature until they dried. These protein-coated filters were washed again with PBS and used within 12 h for cell migration studies. To prepare collagen I-coated inserts, filters were coated with rat tail collagen I (ICN Biochemicals, Costa, Mesa, Calif.) (400 μg/ml in PBS), by adding 0.1 ml of this solution to an insert and incubating the inserts at room temperature for 24 h. Some of these collagen I-coated filters were then incubated with tenascin as described above.
PMN: 250 μl of PBS [supplemented with 5.5 mM glucose and 0.1% human serum albumin (HSA) (PBSG-HSA)] containing 1×10^6 PMNs was placed in the upper compartment of each insert. 250 μl of PBSG-HSA with or without chemoattractant, as indicated, was added to the bottom compartment. The inserts were incubated for about 4 h at 37° C. in a humidified atmosphere containing 95% air/5% CO2. […] The medium in the lower compartment was collected and its content of PMN determined using a Coulter Counter, as described in Example 1.

monocytes = test: Monocyte migration through collagen I coated inserts; settings: collagen I alone, 24 h
Procedure: Cultured monocytes were prepared by allowing 10^7 total mononuclear cells, suspended in 10 ml of RMPI 1640 medium supplemented with 10% pooled human serum (1640+HS), or 10% autologous serum (1640+AS), to adhere to Falcon T-150 tissue culture Petri dishes for 2 h at 37° C. Non-adherent cells were removed by washing, leaving an adherent cell population consisting of greater than 98% monocytes as measured by their capacity to phagocytose IgG coated sheep red blood cells. For migration studies, monocytes were maintained in culture for 24 h in RPMI 1640+HS or AS, and detached from the dishes by gentle pipetting of 10 ml of ice cold phosphate buffered saline (without Ca^2+ or Mg^2+) containing 1.0 mM EDTA. The cells recovered were resuspended in RPMI-1640+HS as described (65).
Cell culture inserts containing polyethylene terephthalate filters, 8-μm pore size (Becton-Dickinson), were overlaid with 0.1 ml of Matrigel (20-25 μg protein/filter) (Collaborative Research, Bedford, Mass.), and incubated at room temperature until they dried. These Matrigel-coated filters were washed with phosphate buffered saline containing 1.0 mM Mg^2+ and 1.0 mM Ca^2+ (PBS). 0.1 ml of a PBS solution (pH 7.2) containing the indicated amount of purified chick brain tenascin was added to some of the inserts. The filters were incubated at room temperature until they dried. […]

`CCCCC/C=C\C[C@@H](O)/C=C/C=C/C=C\[C@@H](O)CCCC(=O)O` [LTB4, leukotriene B4] was tested, and the “More PMNs migrated through fibrin in response to LTB4 than to IL-8” value (PMNs [1]) was 25-50%, the “PMN migration through fibrin gels at supra-optimal concentrations” value (PMNs [1]; IL-8 at >10^−7 M, supra-optimal LTB4) was “no indication of PMN desensitization” and the “PMN migration through fibrin gels (in words)” value (PMNs [1]; chemoattractant in lower compartment, zymosan-activated human plasma 2-10%) was “migrated”. For the same compound, the “PMN migration through fibrin gels without gradient” value (PMNs [1]; chemoattractant in upper compartment, or equal concentrations in upper and lower compartments) was “Few PMNs migrated”, the “Concentration giving maximal PMN migration through fibrin gels” value (PMNs [1]; in bottom compartment, 6 hrs) was 20 nM and the “PMNs that migrated through fibrin gels within 2 hrs” value (PMNs [1]; optimal concentration, 2 hrs) was “Ten”. For the same compound, the “PMN migration through plasma gels formed by thrombin treatment of human plasma” value (PMNs [2]) was “migrated”, the “PMN migration through filters with adsorbed fibrinogen or fibronectin” value (PMNs [3]) was “promoted PMN migration” and the “PMNs that migrated through Matrigel-coated inserts” value (PMNs [4]) was roughly 10%. For the same compound, the “Monocytes that migrated through inserts coated with collagen I” value (monocytes) was 18%.
